Reference: patent publication US12054744B2, “NK cells exhibiting an adaptive phenotype and methods for preparing and for using” (Regents of the University of Minnesota, priority 2015, dated 2024)

Experiments:
Type in all cases: cell-based, human
CD155 on monocytes = experiment: ROS induction in monocytes by H2O2, staining for ROS, CD112 and CD155; details: H2O2 250 μM
Procedure: (§1) MDSCs were induced from healthy blood donor PBMC with IL-6 (10 ng/mL) and GM-CSF (10 ng/mL) for 7 days, bead-depleted for HLA-DR, and enriched for CD33. FIG. 13A. MDSCs and freshly isolated monocytes were stained for the antigens shown. One representative example from independent experiments is shown. FIG. 13B. Induced MDSCs were stained for CD155 and analyzed by flow cytometry following overnight treatment with superoxide dismutase (SOD, 200 IU/mL), arginase inhibitor (a-ARG, arginase inhibitor N(ω)-hydroxy-nor-L-arginine, 500 μM), ROS scavenger (Catalase, 200 international units per milliliter (IU/mL)), blocking antibodies against TGF-β (10 μg/mL), iNOS inhibitor (aiNOS, NG-monomethyl-1-arginine, 500 micromolar (μM)), or left untreated. Pooled (n=4) data is shown as mean±SEM, and statistical analysis were done using the Student's t-test. FIG. 13C. Unstimulated monocytes and MDSCs were stained for total ROS and analyzed by flow cytometry. FIG. 13D. Unstimulated or H2O2 (250 μM) monocytes and unstimulated MDSCs were stained for total ROS, CD112, and CD155 and analyzed by flow cytometry. Cells double positive for ROS and CD112 or CD155 are shown. One representative donor of six is shown. One representative isotype control is shown for all groups for simplicity as individual controls were similar between conditions. […]

[1] = tested on: PLZF expression in cord blood-derived CD56^dim NK cells; experiment: Intracellular PLZF staining of cord blood-derived CD56^dim NK cells after 14 days in culture; details: high-dose IL-15, IL-21 where added
Procedure: FIG. 6A. FACS plots of intracellular PLZF expression in cord blood-derived CD56^dim NK cells from a representative donor after 14 days in the indicated culture conditions. FIG. 6B. Cumulative data showing the percentage of PLZF″ NK cells after 14 days in each culture condition from 6 donors. Two independent experiments were performed. Error bars represent SEM.
Mononuclear cells were isolated from whole cord blood by density gradient centrifugation. T cells and B cells were depleted by positive magnetic selection using anti-CD3 and anti-CD19 microbeads, respectively. CD3/CD19-depleted cells were then added to irradiated OP9 cells at a concentration of 5×10^5 cells/well and cultured for 14 days in RPMI media+10% FBS supplemented with either 1 ng/mL IL-15 or 10 ng/mL IL-15 with or without 50 ng/mL IL-21.
Cord blood-derived NK cells were analyzed before culture and after 7 and 14 days of culture by fluorescence activated cell sorting (FACS) using the following extracellular and intracellular antibodies: BV785-conjugated anti-CD3 (BioLegend, San Diego, CA), PE-Cy7-conjugated anti-CD56 (BioLegend, San Diego, CA), BV605-conjugated anti-CD57 (BioLegend, San Diego, CA), APC-conjugated SYK (eBioscience, San Diego, CA), and PE-conjugated anti-PLZF (BD Biosciences, San Jose, CA).
Transcriptional silencing of the transcription factor promyelocytic leukemia zinc finger (PLZF) is a hallmark of adaptive NK cells that expand in response to CMV infection (Schlums et al. Immunity. 2015; 42(3):443-456). Intracellular staining for PLZF was performed in NK cells from freshly isolated mononuclear cells and from cells that were cultured for 14 days in vitro. Freshly isolated CD56^dimSYK^− NK cells from cord blood were predominantly PLZF-positive (99.3%±0.10). […] Therefore, IL-21 drives down PLZF expression in CD56^dimSYK^− NK cells, causing these cells to acquire adaptive characteristics (FIG. 6).

pZAP70/Syk and pERK1/2 = experiment: Phosflow of pZAP70/Syk and pERK1/2 in NK cells co-cultured with MDSCs; details: NK cells co-cultured with MDSCs 5 days; anti-TIGIT 10 ug/mL or catalase 200 IU/mL; anti-CD16 stimulation
Procedure: (§2) Purified NK cells from healthy blood donors were co-cultured with autologous MDSCs or freshly isolated monocytes at a 2:1 ratio in the presence of IL-15 (10 ng/mL) and in the presence or absence of blocking antibodies against TIGIT (10 μg/mL), or catalase (200 IU/mL) for 5 days. Cells were then washed, rested for 4 hours, stimulated for 10 and 30 min with anti-CD16, and stained for pZAP/Syk or pERK1/2 respectively. Representative (FIG. 14A) or cumulative (FIG. 14B) data are shown from 3 independent experiments as mean±SEM. Statistical analysis was done using the Student's t-test. FIG. 14C. NK cells from monocyte and MDSC co-cultures in the presence or absence of anti-TIGIT or catalase were washed and incubated with 51 Cr-labeled K562 for 4 hours to assess NK cell cytotoxicity. Representative data from 3 independent experiments is shown as mean±SEM.
Given the strong suppressive effect of TIGIT engagement on conventional NK cell function and proliferation, the CD16 induced signaling interaction with TIGIT in NK cells co-cultured with MDSC was analyzed. […] To investigate whether blocking TIGIT or ROS could recover the function of NK cells cultured with MDSCs in cytotoxicity assays, NK cells were cultured with either monocytes or MDSCs were pre-treated with TIGIT blockade or catalase, washed, and then incubated with 51 Cr-labeled K562 cells. […]

CD155 on MDSCs = experiment: CD155 staining of induced MDSCs after overnight treatment with inhibitors of MDSC pathways; details: catalase 200 IU/mL overnight
Procedure: as §1, with “FIG. 13C.” left out, “FIG. 13D.” left out, “cytometry.” for “cytometry. Cells double positive for ROS and CD112 or CD155 are shown. One representative donor of six is shown. One representative isotype control is shown for all groups for simplicity as individual controls were similar between conditions.”
Purified NK cells or MDS PBMC (FIG. 17) cultured with monocytes or MDSCs for different time points and with different stimuli were resuspended in staining buffer (PBS containing 0.5% human AB serum) and stained with fluorochrome-conjugated antibodies (Table IV). […] All cells were acquired by LSRII and analyzed by FlowJo. […]

K562 = experiment: Chromium (51Cr) release assay against K562; details: anti-TIGIT 10 ug/mL or catalase 200 IU/mL
Procedure: as §2, with “NK cells from monocyte and MDSC co-cultures in the presence or absence of anti-TIGIT or catalase were washed and incubated with 51 Cr-labeled K562 for 4 hours to assess NK cell cytotoxicity. Representative data from 3 independent experiments is shown as mean±SEM.” left out
Given the strong suppressive effect of TIGIT engagement on conventional NK cell function and proliferation, the CD16 induced signaling interaction with TIGIT in NK cells co-cultured with MDSC was analyzed. […]
Following 5 days of co-culture with monocytes or MDSCs in the presence or absence of blocking antibodies against TIGIT (10 ug/mL) or ROS scavenger catalase (200 IU/mL), NK cell cytotoxicity was analyzed by chromium (51 Cr) release assays (4 hours) against K562 (ATCC, Manassas, VA) cells at a 5:1-2.5:1 effector:target ratios. 51 Cr release was measured by a γ scintillation counter (Perkin Elmer, Waltham, MA), and specific target lysis was determined.

OO [H2O2]
expression of CD155 in ROS^+ monocytes (CD155 on monocytes): induce the expression of CD155

IL-21: cytokine added at 50 ng/mL to IL-15 cultures
decrease in PLZF expression (percentage of PLZF-negative NK cells) ([1]; CD56^dimCD57^+SYK^+ NK cells): 12.13%±2.43 | decrease in PLZF expression (percentage of PLZF-negative NK cells) ([1]; CD56^dimCD57^+SYK^− NK cells): 66.0%±8.86 | decrease in PLZF expression (percentage of PLZF-negative NK cells) ([1]; CD56^dimCD57^−SYK^+ NK cells): 14.92%±1.80 | decrease in PLZF expression (percentage of PLZF-negative NK cells) ([1]; CD56^dimCD57^−SYK^− NK cells): 35.82%±7.02

B1: catalase: ROS scavenger catalase (Sigma-Aldrich), 200 IU/mL (protein, UniProt P00432 2-527, looked up)
Catalase: ADNRDPASDQMKHWKEQRAAQKPDVLTTGGGNPVGDKLNSLTVGPRGPLLVQDVVFTDEMAHFDRERIPERVVHAKGAGAFGYFEVTHDITRYSKAKVFEHIGKRTPIAVRFSTVAGESGSADTVRDPRGFAVKFYTEDGNWDLVGNNTPIFFIRDALLFPSFIHSQKRNPQTHLKDPDMVWDFWSLRPESLHQVSFLFSDRGIPDGHRHMNGYGSHTFKLVNANGEAVYCKFHYKTDQGIKNLSVEDAARLAHEDPDYGLRDLFNAIATGNYPSWTLYIQVMTFSEAEIFPFNPFDLTKVWPHGDYPLIPVGKLVLNRNPVNYFAEVEQLAFDPSNMPPGIEPSPDKMLQGRLFAYPDTHRHRLGPNYLQIPVNCPYRARVANYQRDGPMCMMDNQGGAPNYYPNSFSAPEHQPSALEHRTHFSGDVQRFNSANDDNVTQVRTFYLKVLNEEQRKRLCENIAGHLKDAQLFIQKKAVKNFSDVHPEYGSRIQALLDKYNEEKPKNAVHTYVQHGSHLSAREKANL
phosphorylation of ZAP70/Syk and ERK1/2 (pZAP70/Syk and pERK1/2): increased the phosphorylation | decrease in the expression of CD155 on MDSCs (CD155 on MDSCs): 55%±23 | NK cell cytotoxicity against K562, NK cells cultured alone (K562): Neither anti-TIGIT nor catalase had any effect | NK cell cytotoxicity against K562 after co-culture with MDSCs (K562; 5 days, 4 hours 51Cr release): completely reversed the suppressive effect
